Results reported in ChEMBL document CHEMBL3734734, “Synthesis and antibacterial activity of trivalent ultrashort Arg-Trp-based antimicrobial peptides (AMPs)” (2015).
Converted amounts (≈) assume the structure as drawn.

How the values were obtained:
Format in all cases: functional
[1] = test system: Escherichia coli; assay: Antibacterial activity against Escherichia coli DSM 30083 after 16 hrs by microdilution assay; conditions: DSM 30083 = JCM 1649 = ATCC 11775, 16 h
[2] = test system: Acinetobacter baumannii; assay: Antibacterial activity against Acinetobacter baumannii DSM 30007 after 16 hrs by microdilution assay; conditions: DSM 30007, 16 h
[3] = test system: Bacillus subtilis; assay: Antibacterial activity against Bacillus subtilis 168 after 16 hrs by microdilution assay; conditions: subsp. subtilis str. 168, 16 h
[4] = test system: Staphylococcus aureus; assay: Antibacterial activity against Staphylococcus aureus DSM 20231 after 16 hrs by microdilution assay; conditions: DSM 20231, 16 h
[5] = test system: Staphylococcus aureus; assay: Antibacterial activity against methicillin-resistant Staphylococcus aureus ATCC 43300 after 16 hrs by microdilution assay; conditions: ATCC 43300, 16 h

Compound	MIC [1]	MIC [2]	MIC [3]	MIC [4]	MIC [5]
N=C(N)NCCC[C@H](NC(=O)[C@H](Cc1c[nH]c2ccccc12)NCc1cn(Cc2cc(Cn3cc(CN[C@@H](Cc4c[nH]c5ccccc45)C(=O)N[C@@H](CCCNC(=N)N)C(=O)O)nn3)cc(Cn3cc(CN[C@@H](Cc4c[nH]c5ccccc45)C(=O)N[C@@H](CCCNC(=N)N)C(=O)O)nn3)c2)nn1)C(=O)O	60 µM (≈ 86.3 µg/mL)	60 µM (≈ 86.3 µg/mL)	7.6 µM (≈ 10.9 µg/mL)	30 µM (≈ 43.2 µg/mL)	15 µM (≈ 21.6 µg/mL)
N=C(N)NCCC[C@H](NC(=O)[C@H](Cc1c[nH]c2ccccc12)NC(=O)[C@H](CCCNC(=N)N)NCc1cn(Cc2cc(Cn3cc(CN[C@@H](CCCNC(=N)N)C(=O)N[C@@H](Cc4c[nH]c5ccccc45)C(=O)N[C@@H](CCCNC(=N)N)C(=O)O)nn3)cc(Cn3cc(CN[C@@H](CCCNC(=N)N)C(=O)N[C@@H](Cc4c[nH]c5ccccc45)C(=O)N[C@@H](CCCNC(=N)N)C(=O)O)nn3)c2)nn1)C(=O)O	13 µM (≈ 24.8 µg/mL)	54 µM (≈ 103 µg/mL)	6 µM (≈ 11.4 µg/mL)	27 µM (≈ 51.5 µg/mL)	13 µM (≈ 24.8 µg/mL)
CCc1c(Cn2cc(CN[C@@H](CCCNC(=N)N)C(=O)N[C@@H](Cc3c[nH]c4ccccc34)C(=O)N[C@@H](CCCNC(=N)N)C(=O)O)nn2)c(CC)c(Cn2cc(CN[C@@H](CCCNC(=N)N)C(=O)N[C@@H](Cc3c[nH]c4ccccc34)C(=O)N[C@@H](CCCNC(=N)N)C(=O)O)nn2)c(CC)c1Cn1cc(CN[C@@H](CCCNC(=N)N)C(=O)N[C@@H](Cc2c[nH]c3ccccc23)C(=O)N[C@@H](CCCNC(=N)N)C(=O)O)nn1	13 µM (≈ 25.9 µg/mL)	26 µM (≈ 51.8 µg/mL)	3 µM (≈ 5.97 µg/mL)	13 µM (≈ 25.9 µg/mL)	13 µM (≈ 25.9 µg/mL)
N=C(N)NCCC[C@H](NC(=O)[C@H](Cc1c[nH]c2ccccc12)NC(=O)[C@@H](N)CCCNC(=N)N)C(=O)NCc1cn(Cc2ccccc2)nn1	> 100 µM	> 100 µM	35 µM (≈ 24 µg/mL)	> 100 µM	70 µM (≈ 48.1 µg/mL)
CCc1c(Cn2cc(CN[C@@H](Cc3c[nH]c4ccccc34)C(=O)N[C@@H](CCCNC(=N)N)C(=O)O)nn2)c(CC)c(Cn2cc(CN[C@@H](Cc3c[nH]c4ccccc34)C(=O)N[C@@H](CCCNC(=N)N)C(=O)O)nn2)c(CC)c1Cn1cc(CN[C@@H](Cc2c[nH]c3ccccc23)C(=O)N[C@@H](CCCNC(=N)N)C(=O)O)nn1	15 µM (≈ 22.8 µg/mL)	15 µM (≈ 22.8 µg/mL)	2.2 µM (≈ 3.35 µg/mL)	15 µM (≈ 22.8 µg/mL)	7.3 µM (≈ 11.1 µg/mL)
N=C(N)NCCC[C@H](NCc1cn(Cc2cc(Cn3cc(CN[C@@H](CCCNC(=N)N)C(=O)N[C@@H](Cc4c[nH]c5ccccc45)C(=O)O)nn3)cc(Cn3cc(CN[C@@H](CCCNC(=N)N)C(=O)N[C@@H](Cc4c[nH]c5ccccc45)C(=O)O)nn3)c2)nn1)C(=O)N[C@@H](Cc1c[nH]c2ccccc12)C(=O)O	60 µM (≈ 86.3 µg/mL)	30 µM (≈ 43.2 µg/mL)	3.8 µM (≈ 5.47 µg/mL)	30 µM (≈ 43.2 µg/mL)	15 µM (≈ 21.6 µg/mL)
CCc1c(Cn2cc(CN[C@@H](CCCNC(=N)N)C(=O)N[C@@H](Cc3c[nH]c4ccccc34)C(=O)O)nn2)c(CC)c(Cn2cc(CN[C@@H](CCCNC(=N)N)C(=O)N[C@@H](Cc3c[nH]c4ccccc34)C(=O)O)nn2)c(CC)c1Cn1cc(CN[C@@H](CCCNC(=N)N)C(=O)N[C@@H](Cc2c[nH]c3ccccc23)C(=O)O)nn1	60 µM (≈ 91.4 µg/mL)	15 µM (≈ 22.8 µg/mL)	1.8 µM (≈ 2.74 µg/mL)	7.3 µM (≈ 11.1 µg/mL)	7.3 µM (≈ 11.1 µg/mL)
CCc1c(Cn2cc(CN[C@H](Cc3c[nH]c4ccccc34)C(=O)N[C@@H](CCCNC(=N)N)C(=O)N[C@H](Cc3c[nH]c4ccccc34)C(=O)O)nn2)c(CC)c(Cn2cc(CN[C@H](Cc3c[nH]c4ccccc34)C(=O)N[C@@H](CCCNC(=N)N)C(=O)N[C@H](Cc3c[nH]c4ccccc34)C(=O)O)nn2)c(CC)c1Cn1cc(CN[C@H](Cc2c[nH]c3ccccc23)C(=O)N[C@@H](CCCNC(=N)N)C(=O)N[C@H](Cc2c[nH]c3ccccc23)C(=O)O)nn1 (stereo in doubt)	16 µM (≈ 33.3 µg/mL)	32 µM (≈ 66.6 µg/mL)	1 µM (≈ 2.08 µg/mL)	4 µM (≈ 8.33 µg/mL)	2 µM (≈ 4.16 µg/mL)
N=C(N)NCCC[C@H](NC(=O)[C@@H](Cc1c[nH]c2ccccc12)NCc1cn(Cc2cc(Cn3cc(CN[C@H](Cc4c[nH]c5ccccc45)C(=O)N[C@@H](CCCNC(=N)N)C(=O)N[C@H](Cc4c[nH]c5ccccc45)C(=O)O)nn3)cc(Cn3cc(CN[C@H](Cc4c[nH]c5ccccc45)C(=O)N[C@@H](CCCNC(=N)N)C(=O)N[C@H](Cc4c[nH]c5ccccc45)C(=O)O)nn3)c2)nn1)C(=O)N[C@H](Cc1c[nH]c2ccccc12)C(=O)O (stereo in doubt)	12 µM (≈ 24 µg/mL)	> 100 µM	3 µM (≈ 5.99 µg/mL)	> 100 µM	12 µM (≈ 24 µg/mL)
O=C(O)c1cn(C2CC2)c2cc(N3CCNCC3)c(F)cc2c1=O [CIPROFLOXACIN]	1.5 µM (≈ 0.497 µg/mL)	24 µM (≈ 7.95 µg/mL)	24 µM (≈ 7.95 µg/mL)	12 µM (≈ 3.98 µg/mL)	12 µM (≈ 3.98 µg/mL)
H-RWRWRW-NH2	21 µM	21 µM	1.3 µM	11 µM	5.3 µM
